According to the supplement of paper PMC11061612:

Assays:
Experiment in all cases: combination Emax (second highest fraction inhibited in the dose matrix, 72 h); higher = more inhibition; extreme values may be limits of the assay
[1] = tested on: CAL-29 (Bladder Carcinoma)
Method in brief: (§1)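 Bliss excess equals the observed combination effect minus the expected value EA + EB − EA·EB, where EA and EB are the effects of each agent alone. Combination Emax is the second-highest inhibition within the matrix. Inhibition was scaled from CellTiter-Glo 2.0 luminescence, with 0 set by vehicle wells and 1 by blank wells, after 72 hours of two-drug dosing of cells plated in 1536-well plates.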

[2] = tested on: TT2609-C02 (Thyroid Gland Carcinoma)
Method in brief: as §1

[3] = tested on: CAPAN-2 (Pancreatic Carcinoma)
Method in brief: as §1

IGR-37 (Melanoma) = tested on: IGR-37 (Melanoma)
Method in brief: as §1

[4] = tested on: NCI-H1581 (Non-Small Cell Lung Carcinoma)
Method in brief: as §1

[5] = tested on: JSC-1 (B-Cell Non-Hodgkin's Lymphoma)
Method in brief: as §1

Hs-445 (Non-Cancerous) = tested on: Hs-445 (Non-Cancerous)
Method in brief: as §1

GI-ME-N (Neuroblastoma) = tested on: GI-ME-N (Neuroblastoma)
Method in brief: as §1

[6] = tested on: CCK-81 (Colorectal Carcinoma)
Method in brief: as §1

[7] = tested on: COR-L311 (Small Cell Lung Carcinoma)
Method in brief: as §1

[8] = tested on: PANC-10-05 (Pancreatic Carcinoma)
Method in brief: as §1

[9] = tested on: MDST8 (Colorectal Carcinoma)
Method in brief: as §1

[10] = tested on: A549 (Lung Adenocarcinoma)
Method in brief: as §1

PA-1 (Ovarian Carcinoma) = tested on: PA-1 (Ovarian Carcinoma)
Method in brief: as §1

U-2-OS (Osteosarcoma) = tested on: U-2-OS (Osteosarcoma)
Method in brief: as §1

8-MG-BA (Glioblastoma) = tested on: 8-MG-BA (Glioblastoma)
Method in brief: as §1

[11] = tested on: BICR22 (Oral Cavity Carcinoma)
Method in brief: as §1

A498 (Kidney Carcinoma) = tested on: A498 (Kidney Carcinoma)
Method in brief: as §1

LN-405 (Glioblastoma) = tested on: LN-405 (Glioblastoma)
Method in brief: as §1

[12] = tested on: KARPAS-422 (B-Cell Non-Hodgkin's Lymphoma)
Method in brief: as §1

Row | Structure (SMILES) | combination Emax [1] | combination Emax [2] | combination Emax [3] | combination Emax (IGR-37 (Melanoma)) | combination Emax [4] | combination Emax [5] | combination Emax (Hs-445 (Non-Cancerous)) | combination Emax (GI-ME-N (Neuroblastoma)) | combination Emax [6] | combination Emax [7] | combination Emax [8] | combination Emax [9] | combination Emax [10] | combination Emax (PA-1 (Ovarian Carcinoma)) | combination Emax (U-2-OS (Osteosarcoma)) | combination Emax (8-MG-BA (Glioblastoma)) | combination Emax [11] | combination Emax (A498 (Kidney Carcinoma)) | combination Emax (LN-405 (Glioblastoma)) | combination Emax [12]
1 | CN(CCO)CC[C@H](CSc1ccccc1)Nc1ccc(S(=O)(=O)NC(=O)c2ccc(N3CCC([C@@H](O)c4ccccc4-c4ccc(Cl)cc4)CC3)cc2)cc1S(=O)(=O)C(F)(F)F [AZD4320] + C=CCn1c(=O)c2cnc(Nc3ccc(N4CCN(C)CC4)cc3)nc2n1-c1cccc(C(C)(C)O)n1 [AZD1775] (first compound max 1 µM, partner max 1 µM) | 0.942 | 0.722 | 0.688 | 0.762 | 0.475 | 0.904 | 1 | 0.334 | 0.775 | 1 | 0.481 | 0.992 | 0.384 | 0.967 | 0.782 | 0.785 | 0.882 | 0.628 | 0.379 | 0.978
2 | CN(CCO)CC[C@H](CSc1ccccc1)Nc1ccc(S(=O)(=O)NC(=O)c2ccc(N3CCC([C@@H](O)c4ccccc4-c4ccc(Cl)cc4)CC3)cc2)cc1S(=O)(=O)C(F)(F)F [AZD4320] + CCN(CCO)CCCOc1ccc2c(Nc3cc(CC(=O)Nc4cccc(F)c4)[nH]n3)ncnc2c1 [AZD2811] (first compound max 1 µM, 7x7, partner max 1 µM) | 0.545 | 0.505 | 0.776 | 0.116 | 0.445 | 0.341 | 0.926 | 0.19 | 0.178 | 1 | 0.18 | 0.918 | 0.446 | 0.773 | 0.389 | 0.21 | 0.828 | 0.218 | 0.363 | 0.903
3 | CN(CCO)CC[C@H](CSc1ccccc1)Nc1ccc(S(=O)(=O)NC(=O)c2ccc(N3CCC([C@@H](O)c4ccccc4-c4ccc(Cl)cc4)CC3)cc2)cc1S(=O)(=O)C(F)(F)F [AZD4320] + C[C@@H]1COCCN1C2=NC(=NC(=C2)C3(CC3)[S@](=N)(=O)C)C4=C5C=CNC5=NC=C4 [AZD6738] (first compound max 1 µM, 7x7, partner max 10 µM) | 0.928 | 0.25 | 0.791 | 0.796 | 0.364 | 0.888 | 1 | 0.499 | 0.828 | 1 | 0.504 | 0.944 | 0.777 | 0.886 | 0.724 | 0.864 | 0.897 | 0.722 | 0.63 | 0.979
4 | CN(CCO)CC[C@H](CSc1ccccc1)Nc1ccc(S(=O)(=O)NC(=O)c2ccc(N3CCC([C@@H](O)c4ccccc4-c4ccc(Cl)cc4)CC3)cc2)cc1S(=O)(=O)C(F)(F)F [AZD4320] + Cn1cnc2c(F)c(Nc3ccc(Br)cc3Cl)c(C(=O)NOCCO)cc21 [Selumetinib] (first compound max 1 µM, 7x7, partner max 3 µM) | 0.634 | 0.546 | 0.772 | 0.885 | 0.4 | 0.707 | 0.99 | 0.345 | 0.491 | 1 | 0.479 | 0.955 | 0.671 | 0.8 | 0.516 | 0.367 | 0.721 | 0.694 | 0.646 | 0.875
5 | COc1nnc2ccc(N3CCC(c4ccc(OCCN5CCN(C)C(=O)[C@H]5C)cc4)CC3)nn12 [AZD5153] + C=CCn1c(=O)c2cnc(Nc3ccc(N4CCN(C)CC4)cc3)nc2n1-c1cccc(C(C)(C)O)n1 [AZD1775] (first compound max 1 µM, partner max 1 µM) | 0.524 | 0.622 | 0.328 | 0.775 | 0.866 | 0.901 | 0.71 | 0.393 | 0.869 | 0.946 | 0.597 | 0.461 | 0.885 | 0.973 | 0.635 | 0.801 | 0.489 | 0.534 | 0.535 | 0.888
6 | COc1nnc2ccc(N3CCC(c4ccc(OCCN5CCN(C)C(=O)[C@H]5C)cc4)CC3)nn12 [AZD5153] + CC1(C)CCC(CN2CCN(c3ccc(C(=O)NS(=O)(=O)c4ccc(NCC5CCOCC5)c([N+](=O)[O-])c4)c(Oc4cnc5[nH]ccc5c4)c3)CC2)=C(c2ccc(Cl)cc2)C1 [Venetoclax] (first compound max 1 µM, 7x7, partner max 1 µM) | 0.327 | 0.376 | 0.299 | 0.65 | 0.469 | 0.769 | 0.724 | 0.285 | 0.848 | 0.934 | 0.474 | 0.324 | 0.707 | 0.862 | 0.321 | 0.707 | 0.235 | 0.439 | 0.441 | 0.948
